Reference: patent US10315992B2, “Tetracyline compounds” (Tetraphase Pharmaceuticals, Inc., priority 2012, dated 2019)
Read-outs that look alike come from different tables or passages of the source.

What was measured:
[1] = tested on: PA 884 35151; assay: MIC assay, PA884; conditions: Pseudomonas aeruginosa, read-out: MIC PA 884 351 51
Description: (§3) MICs were determined according to the Clinical and Laboratory Standards Institute (CLSI) guidances (e.g., CLSI. Performance standards for antimicrobial susceptibility testing; nineteenth information supplement. CLSI document M100-S19, CLSI, 940 West Valley Road, Suite 1400, Wayne, Pa. 19087-1898, USA, 2009). Briefly, frozen bacterial strains were thawed and subcultured onto Mueller Hinton Broth (MHB) or other appropriate media (Streptococcus requires blood and Haemophilus requires hemin and NAD). Following incubation overnight, the strains were subcultured onto Mueller Hinton Agar and again incubated overnight. […] Isolated colonies were selected to prepare a starting inoculum equivalent to a 0.5 McFarland standard. […] Test compounds were prepared by dilution in sterile water to a final concentration of 5.128 mg/mL. Antibiotics (stored frozen, thawed and used within 3 hours of thawing) and compounds were further diluted to the desired working concentrations.
(§4) The assays were run as follows. Fifty μL of MHB was added to wells 2-12 of a 96-well plate. One hundred μL of appropriately diluted antibiotics was added to well 1. Fifty μL of antibiotics was removed from well 1 and added to well 2 and the contents of well 2 mixed by pipetting up and down five times. Fifty μL of the mixture in well 2 was removed and added to well 3 and mixed as above. Serial dilutions were continued in the same manner through well 12. Fifty μL was removed from well 12 so that all contained 50 μL. Fifty μL of the working inoculum was then added to all test wells. A growth control well was prepared by adding 50 μL of working inoculum and 50 μL of MHB to an empty well. The plates were then incubated at 37° C. overnight, removed from the incubator and each well was read on a plate reading mirror. The lowest concentration (MIC) of test compound that inhibited the growth of the bacteria was recorded.

[2] = tested on: Pseudomonas aeruginosa PA111 (ATCC 27853); assay: MIC assay, PA111; assay type: cell-based
[3] = tested on: Enterococcus faecalis EF327 (wound isolate, tet(M)); assay: MIC assay, EF327; assay type: cell-based
[4] = tested on: Pseudomonas aeruginosa PA693 (2009 corneal scraping isolate); assay: MIC assay, PA693; assay type: cell-based
[5] = tested on: Enterobacter cloacae EC603 (urine isolate); assay: MIC assay, EC603; assay type: cell-based
[6] = tested on: Pseudomonas aeruginosa PA669 (2009 tracheal aspirate isolate); assay: MIC assay, PA669; assay type: cell-based
[7] = tested on: EC 880 ipxC; assay: MIC assay, EC880; assay type: cell-based
Description: (§1) Minimum Inhibitory Concentration (MIC) Assay
(§2) The assays were run as follows.

[8] = tested on: EC 882 imp; assay: MIC assay, EC882; assay type: cell-based
Description: as §1, §2

[9] = tested on: Haemophilus influenzae HI262 (tetracycline-resistant, ampicillin-resistant); assay: MIC assay, HI262; assay type: cell-based
[10] = tested on: Enterobacter cloacae EC108 (ATCC 13047); assay: MIC assay, EC108; assay type: cell-based
[11] = tested on: Staphylococcus aureus SA100 (ATCC 13709, MSSA, Smith strain); assay: MIC assay, SA100; assay type: cell-based
[12] = tested on: KP 194 7E+05; assay: MIC assay, KP194; conditions: Table 5
Description: as §3, §4

[13] = tested on: Klebsiella pneumoniae KP457 (2009 ESBL+, CTX-M, OXA)
[14] = tested on: Escherichia coli EC878 (MG1655 tolC::kan); assay: microbe, parasite or virus in culture; assay type: cell-based
[15] = tested on: Staphylococcus aureus SA161 (HA-MRSA, tet(M)); assay: MIC assay, SA161; assay type: cell-based; conditions: for MIC: Staphylococcus aureus, MRSA
[16] = tested on: Acinetobacter baumannii AB110 (ATCC 19606); assay: MIC assay, AB110; assay type: cell-based
[17] = tested on: Enterococcus faecalis EF159 (tet(M)); assay: MIC assay, EF159; assay type: cell-based
[18] = tested on: Escherichia coli EC155 (tet(A)); assay: MIC assay, EC155; assay type: cell-based; conditions: for MIC: Escherichia coli, read-out: MIC EC 155 tetA
[19] = tested on: Enterococcus faecalis EF103 (ATCC 29212); assay: MIC assay, EF103; assay type: cell-based
[20] = tested on: Enterococcus faecium EF404 (blood isolate, tet(M)); assay: MIC assay, EF404; assay type: cell-based
[21] = tested on: Pseudomonas aeruginosa PA555 (ATCC BAA-47, PAO1); assay: MIC assay, PA555; assay type: cell-based
[22] = tested on: Moraxella catarrhalis MC205 (ATCC 8176); assay: MIC assay, MC205; assay type: cell-based
[23] = tested on: Acinetobacter baumannii AB250 (cystic fibrosis isolate, MDR); assay: MIC assay, AB250; assay type: cell-based
[24] = tested on: Streptococcus pneumoniae SP106 (ATCC 49619); assay: MIC assay, SP106; assay type: cell-based
[25] = tested on: Proteus mirabilis PM385 (urine ESBL+ isolate); assay: MIC assay, PM385; assay type: cell-based
[26] = tested on: Pseudomonas aeruginosa PA673 (2009 urine isolate); assay: MIC assay, PA673; assay type: cell-based
[27] = Table 7, read-out: MIC EC 880 ipxC
[28] = MG1655, read-out: MIC EC 878 toIC, E. coli MG1655 tolC::kan, Table 6
[29] = MG1655, read-out: MIC EC 878 toIC, E. coli MG1655 tolC::kan, Table 7
[30] = MG1655, read-out: MIC EC 878 toIC, control compounds
[31] = MG1655, read-out: MIC EC 878 tolC, control compounds, numeric

CN(C)[C@@H]1C(O)=C(C(N)=O)C(=O)[C@@]2(O)C(O)=C3C(=O)c4c(O)cccc4C[C@H]3C[C@@H]12 [Sancycline, sancycline]
16 µg/mL: MIC [23] | MIC ([23]; read-out: MIC AB 250)
4 µg/mL: MIC [1] | MIC ([3]; read-out: MIC EF 327 tet M) | MIC ([3]; read-out: MIC EF 327 tetM) | MIC ([20]; read-out: MIC EF 404 tet M) | MIC ([20]; read-out: MIC EF 404 tetM)
0.25 µg/mL: MIC [7, 27] | MIC ([8]; Table 7, read-out: MIC EC 882 imp) | MIC ([8]; read-out: MIC EC 882 imp, Table 6) | MIC ([16]; ATCC19606, read-out: MIC AB 110 19606) | MIC ([24]; ATCC49619, read-out: MIC SP 106 49619)
8 µg/mL: MIC ([10]; ATCC13047, read-out: MIC ECI 108 13047) | MIC KP 457 [13] | MIC KP 457 CTX- M-15 [13] | MIC KP 457 CTX-M-15 [13] | MIC ([17]; read-out: MIC EF 159 tetM, E. faecalis tet(M), Table 4) | MIC ([17]; read-out: MIC EF 159 tetM, E. faecalis tet(M), Table 5) | MIC ([19]; ATCC29212, read-out: MIC EF 103 29212) | MIC ([25]; read-out: MIC PM 385) | MIC ([25]; read-out: MIC PM 385 CTX-M15)
0.13 µg/mL: MIC ([22]; ATCC8176, read-out: MIC MC 205 8176)
33 µg/mL: MIC ([2]; ATCC27853, read-out: MIC PA 111 27853) | MIC [4] | MIC ([4]; read-out: MIC PA 693) | MIC [6] | MIC ([6]; read-out: MIC PA 669) | MIC ([26]; read-out: MIC PA 673)
2 µg/mL: MIC ([15]; read-out: MIC SA 161 MRSAtetM) | MIC ([15]; read-out: MIC SA 161 tet M) | MIC ([15]; read-out: MIC SA 161 tetM)
0.2 µg/mL: MIC ([7]; read-out: MIC EC 880 ipx C)
32 μg/mL: MIC KP 194 7E+05 [12]
0.5 µg/mL: MIC ([9]; read-out: MIC HI 262 33929)
32 µg/mL: MIC [5] | MIC ([5]; read-out: MIC EC 603 tetA) | MIC [18] | MIC [21] | MIC ([21]; read-out: MIC PA5 55 BAA- 47) | MIC ([21]; read-out: MIC PA 555) | MIC ([21]; read-out: MIC PA 555 BAA- 47) | MIC ([21]; read-out: MIC PA 555 BAA-47) | MIC [26]
1 µg/mL: MIC ([11]; read-out: MIC SA 100 13709) | MIC [14, 28] | MIC [14, 29] | MIC [14, 30] | MIC [14, 31]

CN(C)c1ccc(O)c2c1C[C@H]1C[C@H]3[C@H](N(C)C)C(O)=C(C(N)=O)C(=O)[C@@]3(O)C(O)=C1C2=O [Minocycline, minocycline]
32 μg/mL: MIC KP 194 7E+05 [12]
33 µg/mL: MIC ([4]; control compounds, c5, strain PA693 inferred, read-out: MIC) | MIC ([4]; control compounds, numeric, read-out: MIC PA 693) | MIC ([5]; control compounds, c7, strain EC603 inferred, read-out: MIC) | MIC ([5]; control compounds, numeric, read-out: MIC EC 603 tetA) | MIC ([6]; control compounds, c4, strain PA669 inferred, read-out: MIC) | MIC ([6]; control compounds, numeric, read-out: MIC PA 669) | MIC ([26]; control compounds, numeric, read-out: MIC PA 673)
16 µg/mL: MIC ([2]; ATCC27853, P. aeruginosa ATCC 27853, Table 4, read-out: MIC PA 111 27853) | MIC ([17]; E. faecalis tet(M), Table 4, read-out: MIC EF 159 tetM) | MIC ([21]; P. aeruginosa ATCC BAA-47 PAO1, Table 5, read-out: MIC PA 555) | MIC ([21]; P. aeruginosa ATCC BAA-47 PAO1, Table 6, read-out: MIC PA5 55 BAA- 47) | MIC ([21]; P. aeruginosa ATCC BAA-47 PAO1, Table 7, read-out: MIC PA 555 BAA- 47) | MIC ([21]; control compounds, c1, strain PA555 inferred, read-out: MIC) | MIC ([21]; control compounds, numeric, read-out: MIC PA 555 BAA-47) | MIC ([25]; P. mirabilis ESBL+, Table 6, read-out: MIC PM 385) | MIC ([25]; control compounds, numeric, read-out: MIC PM 385 CTX-M15)
2 µg/mL: MIC ([10]; ATCC13047, E. cloacae ATCC 13047, Table 4, read-out: MIC ECI 108 13047)
0.25 µg/mL: MIC [14, 28] | MIC [14, 29] | MIC [14, 30] | MIC [14, 31]
1 µg/mL: MIC [1] | MIC ([9]; H. influenzae tetracycline-resistant, Table 5, read-out: MIC HI 262 33929) | MIC ([19]; ATCC29212, E. faecalis ATCC 29212, Table 4, read-out: MIC EF 103 29212)
0.015 µg/mL: MIC ([7]; Table 6, read-out: MIC EC 880 ipx C) | MIC ([8]; Table 6, read-out: MIC EC 882 imp) | MIC ([24]; ATCC49619, S. pneumoniae ATCC 49619, Table 4, read-out: MIC SP 106 49619)
0.02 µg/mL: MIC [7, 27] | MIC ([8]; read-out: MIC EC 882 imp, Table 7) | MIC ([22]; ATCC8176, M. catarrhalis ATCC 8176, Table 5, read-out: MIC MC 205 8176)
32 µg/mL: MIC ([3]; E. faecalis tet(M), Table 6, read-out: MIC EF 327 tet M) | MIC ([3]; control compounds, numeric, read-out: MIC EF 327 tetM) | MIC ([26]; control compounds, c3, strain PA673 inferred, read-out: MIC)
8 µg/mL: MIC KP 457 [13] | MIC KP 457 CTX- M-15 [13] | MIC KP 457 CTX-M-15 [13] | MIC SA 161 tetM ([15]; S. aureus HA-MRSA, tet(M), Table 5) | MIC ([18]; E. coli tet(A), Table 7) | MIC EC 155 tetA ([18]; control compounds) | MIC ([20]; E. faecium tet(M), Table 6, read-out: MIC EF 404 tet M) | MIC ([20]; control compounds, numeric, read-out: MIC EF 404 tetM) | MIC ([23]; control compounds, c8, strain AB250 inferred, read-out: MIC) | MIC ([23]; control compounds, numeric, read-out: MIC AB 250)
0.063 µg/mL: MIC ([11]; S. aureus ATCC 13709, MSSA, Table 4, read-out: MIC SA 100 13709) | MIC ([16]; ATCC19606, A. baumannii ATCC 19606, Table 4, read-out: MIC AB 110 19606)
